Measurements from the CheMixHub viscosity set.
Values joined by “and” are separate entries in the source; they are usually repeats but may differ in a detail not shown here. Equal entries are not always repeated.

Test: xn = mol fraction of the nth substance listed

OC[C@H]1O[C@H](O[C@H]2[C@H](O)[C@@H](O)C(O)O[C@@H]2CO)[C@H](O)[C@@H](O)[C@@H]1O (stereo not given in full) + O
viscosity
Conditions	293.15 K	298.15 K	303.15 K	308.15 K	313.15 K	318.15 K
100 kPa, x1 = 0.0009465	–	–	–	0.759 mPa·s	–	0.627 mPa·s
100 kPa, x1 = 0.000975	–	0.942 mPa·s	–	0.763 mPa·s	–	0.628 mPa·s
100 kPa, x1 = 0.001093	–	0.948 mPa·s	–	0.765 mPa·s	–	0.632 mPa·s
100 kPa, x1 = 0.001306	–	0.96 mPa·s	–	0.773 mPa·s	–	0.639 mPa·s
100 kPa, x1 = 0.00134	–	0.96 mPa·s	–	0.776 mPa·s	–	0.639 mPa·s
100 kPa, x1 = 0.001467	–	0.968 mPa·s	–	–	–	–
100 kPa, x1 = 0.00157	–	0.972 mPa·s	–	0.786 mPa·s	–	0.645 mPa·s
100 kPa, x1 = 0.001596	–	0.975 mPa·s	–	0.785 mPa·s	–	0.648 mPa·s
100 kPa, x1 = 0.001818	–	0.985 mPa·s	–	0.794 mPa·s	–	0.655 mPa·s
100 kPa, x1 = 0.002168	–	–	–	0.804 mPa·s	–	0.667 mPa·s
100 kPa, x1 = 0.002215	–	–	–	0.81 mPa·s	–	0.669 mPa·s
100 kPa, x1 = 0.002657	–	1.029 mPa·s	–	0.827 mPa·s	–	0.682 mPa·s
101 kPa, x1 = 0.0009	1.022 mPa·s	0.9029 mPa·s	0.8044 mPa·s	0.7221 mPa·s	0.6529 mPa·s	–
101 kPa, x1 = 0.00099	1.025 mPa·s	0.9064 mPa·s	0.8074 mPa·s	0.724 mPa·s	0.6549 mPa·s	–
101 kPa, x1 = 0.0011	1.03 mPa·s	0.9093 mPa·s	0.8099 mPa·s	0.7266 mPa·s	0.6564 mPa·s	–
101 kPa, x1 = 0.0012	1.033 mPa·s	0.9119 mPa·s	0.812 mPa·s	0.7287 mPa·s	0.6586 mPa·s	–
101 kPa, x1 = 0.0013	1.037 mPa·s and 1.041 mPa·s	0.9159 mPa·s and 0.9193 mPa·s	0.8144 mPa·s and 0.8178 mPa·s	0.7315 mPa·s and 0.7341 mPa·s	0.6606 mPa·s and 0.6619 mPa·s	–
101 kPa, x1 = 0.0014	1.045 mPa·s	0.9231 mPa·s	0.8202 mPa·s	0.7362 mPa·s	0.6645 mPa·s	–
101 kPa, x1 = 0.0015	1.05 mPa·s	0.9262 mPa·s	0.823 mPa·s	0.7383 mPa·s	0.6669 mPa·s	–
101 kPa, x1 = 0.0016	1.054 mPa·s	–	0.8261 mPa·s	0.7406 mPa·s	0.6687 mPa·s	–
101 kPa, x1 = 0.0018	1.062 mPa·s	0.9361 mPa·s	0.833 mPa·s	0.7449 mPa·s	0.6724 mPa·s	–
101.3 kPa, x1 = 0.000724	–	–	–	0.751 mPa·s	–	–
101.3 kPa, x1 = 0.00107	–	0.948 mPa·s	–	0.766 mPa·s	–	0.633 mPa·s
101.3 kPa, x1 = 0.00143	–	0.964 mPa·s	–	0.779 mPa·s	–	0.643 mPa·s
101.3 kPa, x1 = 0.00179	–	0.984 mPa·s	–	0.794 mPa·s	–	0.655 mPa·s
101.3 kPa, x1 = 0.002146	–	–	–	0.809 mPa·s	–	–
101.3 kPa, x1 = 0.002501	–	1.019 mPa·s	–	0.819 mPa·s	–	0.678 mPa·s
101.3 kPa, x1 = 0.002851	–	1.037 mPa·s	–	0.836 mPa·s	–	0.688 mPa·s
101.3 kPa, x1 = 0.003177	–	1.053 mPa·s	–	0.848 mPa·s	–	0.698 mPa·s
